# From patent publication US20230391838A1 (priority 2020, published 2023)
# *1 amine or outer side, *2 acyl side, *3 side chain or, on linkers, in order; H or OH if unused. Where a SMILES comes first, the peptide text is derived from it. Bridges are numbered along the chain shown (N, C = ends). [ ]: non-standard residue; d: D form. Tyr(3-I) = N[C@@H](Cc1ccc(O)c(I)c1)C(=O)O; β3hY = N[C@H](CC(=O)O)Cc1ccc(O)cc1; CH2 = C([*:1])[*:2]
# Settings: pH 7.4
structure (smiles),measurement,value
"C[C@@H](O)[C@@H]1NC(=O)[C@@H]2CSCSC[C@@H](C(=O)N[C@H](CC(=O)N[C@@H](CCCNC(=N)N)C(=O)O)Cc3ccc(O)cc3)NC(=O)[C@H](CCC(N)=O)NC(=O)[C@H](Cc3ccc(O)c(I)c3)NC(=O)[C@H](CCCNC(=N)N)NC(=O)[C@H](CSSC[C@H](NC(=O)CN)C(=O)N2)NC(=O)[C@H](CCCNC(=N)N)NC(=O)[C@@H]2CCCN2C(=O)[C@H](CC(=O)O)NC1=O [RgIA-5524, G C^I C^II T D P R C^III R (iY) Q C^IV (bhY) R] (H-GCCTDPRCR[Tyr(3-I)]QC[β3hY]R-OH; disulfide 2-8; linker 3-12 via CH2)",disulfide scrambling in presence of reduced glutathione (in words),largely suppress disulfide scrambling
